Source: US9963496B2, “Stable glucagon analogues and use for treatment of hypoglycaemia” (Novo Nordisk A/S, priority 2014, dated 2018)
*1 amine or outer side, *2 acyl side, *3 side chain or, on linkers, in order; H or OH if unused. Where a SMILES comes first, the peptide text is derived from it. Side-chain parts run from the residue outwards. [ ]: non-standard residue; d: D form. The star is where a group is joined. γGlu = O=C(O)[C@H](CCC(=O)[*:2])N[*:1]; Desaminohistidyl = O=C(CCc1c[nH]cn1)*; Aib = CC(C)(N)C(=O)O

Key:
[1] = biological target: T1, human glucagon receptor (Homo sapiens, UniProt P47871); test: Assay (I)(b): glucagon receptor activation, CRE luciferase reporter gene assay in BHK cells; type: cell-based; details: BHK cells expressing human glucagon receptor and CRE luciferase, 3 h incubation; read-out: EC50 hGlucagonR
T1 construct: expressed in transfected cells; host or cells: BHK cells, clone BHK hGCGR A3*25; isolated membranes
T1 sequence (P47871 26-477): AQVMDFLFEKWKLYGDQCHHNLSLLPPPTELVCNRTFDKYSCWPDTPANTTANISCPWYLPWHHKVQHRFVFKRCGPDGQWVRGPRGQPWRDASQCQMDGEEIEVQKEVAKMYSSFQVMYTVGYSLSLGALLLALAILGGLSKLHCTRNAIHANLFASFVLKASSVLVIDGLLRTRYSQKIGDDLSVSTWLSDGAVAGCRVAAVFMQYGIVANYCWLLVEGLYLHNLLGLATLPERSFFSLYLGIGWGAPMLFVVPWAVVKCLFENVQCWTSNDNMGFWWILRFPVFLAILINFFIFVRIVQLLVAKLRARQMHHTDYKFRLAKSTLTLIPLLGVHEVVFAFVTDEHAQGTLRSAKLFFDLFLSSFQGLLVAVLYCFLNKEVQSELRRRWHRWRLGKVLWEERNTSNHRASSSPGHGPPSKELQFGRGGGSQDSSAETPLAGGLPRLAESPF
How it was run: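 BHK570 cells stably expressing the human glucagon receptor and CRE-luciferase, 5×10 EE3 cells/well in DMEM with 2% ovalbumin and 0.2% Pluronic F-68. Compounds at final 1×10 EE-6 to 1×10 EE-13 M, 3 h at 37° C. Luminescence read; EC50 by four-parameter fit.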

[2] = physchem; type: physicochemical; details: pH 7.5
How it was run: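 Peptide at 250 μM in 10 mM HEPES pH 7.5 with 1 μM Thioflavin T, incubated at 37° C with 960 rpm orbital shaking. ThT fluorescence (ex 444/em 485 nm) read every 20 min; lag-time (t0−2τ) and kapp (1/τ) from curve fit. Recovery is post-assay supernatant peptide by RP-HPLC as % of initial.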

SMILES	EC50 [1] [pM]	recovery at 250 μM [2] [%]
CC(=O)N[C@@H](CCC(=O)N[C@@H](CCC(=O)N[C@@H](CCC(=O)N[C@@H](CCC(=O)NCCCC[C@H](NC(=O)[C@@H](NC(=O)[C@H](Cc1ccccc1)NC(=O)[C@H](CC(=O)O)NC(=O)[C@H](CCC(N)=O)NC(=O)[C@H](C)NC(=O)[C@H](CCCNC(=N)N)NC(=O)[C@H](CCCNC(=N)N)NC(=O)[C@H](CC(C)C)NC(=O)[C@H](CC(=O)O)NC(=O)[C@H](CC(C)C)NC(=O)[C@H](Cc1ccc(O)cc1)NC(=O)[C@H](CCCCN)NC(=O)[C@H](CO)NC(=O)[C@H](Cc1ccc(O)cc1)NC(=O)[C@H](CC(=O)O)NC(=O)[C@H](CO)NC(=O)[C@@H](NC(=O)[C@H](Cc1ccccc1)NC(=O)[C@@H](NC(=O)CNC(=O)[C@H](Cc1c[nH]cn1)NC(=O)C(C)(C)NC(=O)CCc1c[nH]cn1)[C@@H](C)O)[C@@H](C)O)C(C)C)C(=O)N[C@@H](Cc1c[nH]c2ccccc12)C(=O)N[C@@H](CC(C)C)C(=O)N[C@@H](CC(C)C)C(=O)N[C@@H](CO)C(=O)N[C@H](C(=O)O)[C@@H](C)O)C(=O)O)C(=O)O)C(=O)O)C(=O)O [Example 1, N^ϵ24-[(4S)-4-[[(4S)-4-[[(4S)-4-[[(4S)-4-acetamido-4-carboxybutanoyl]amino]-4-carboxybutanoyl]amino]-4-carboxybutanoyl]amino]-4-carboxybutanoyl]-[Imp1, Aib2, His3, Leu16, Lys24, Leu27, Ser28]-Glucagon] (Desaminohistidyl-[Aib]HGTFTSDYSKYLDLRRAQDFVK([γGlu-γGlu-γGlu-γGlu-Ac])WLLST-OH)	1	101
CC(=O)N[C@@H](CCC(=O)N[C@@H](CCC(=O)N[C@@H](CCC(=O)N[C@@H](CCC(=O)NCCCC[C@H](NC(=O)[C@H](CC(C)C)NC(=O)[C@H](CC(C)C)NC(=O)[C@H](Cc1c[nH]c2ccccc12)NC(=O)[C@H](C)NC(=O)[C@@H](NC(=O)[C@H](Cc1ccccc1)NC(=O)[C@H](CC(=O)O)NC(=O)[C@H](CCC(N)=O)NC(=O)[C@H](C)NC(=O)[C@H](CCCNC(=N)N)NC(=O)[C@H](CCCNC(=N)N)NC(=O)[C@H](CO)NC(=O)[C@H](CCC(=O)O)NC(=O)[C@H](CC(C)C)NC(=O)[C@H](Cc1ccc(O)cc1)NC(=O)[C@H](CCCCN)NC(=O)[C@H](CO)NC(=O)[C@H](Cc1ccc(O)cc1)NC(=O)[C@H](CC(=O)O)NC(=O)[C@H](CO)NC(=O)[C@@H](NC(=O)[C@H](Cc1ccccc1)NC(=O)[C@@H](NC(=O)CNC(=O)[C@H](Cc1c[nH]cn1)NC(=O)C(C)(C)NC(=O)CCc1c[nH]cn1)[C@@H](C)O)[C@@H](C)O)C(C)C)C(=O)N[C@H](C(=O)O)[C@@H](C)O)C(=O)O)C(=O)O)C(=O)O)C(=O)O [Example 4, N^ϵ28-[(4S)-4-[[(4S)-4-[[(4S)-4-[[(4S)-4-acetamido-4-carboxybutanoyl]amino]-4-carboxybutanoyl]amino]-4-carboxybutanoyl]amino]-4-carboxybutanoyl]-[Imp1, Aib2, His3, Glu15, Ala24, Leu27, Lys28]-Glucagon] (Desaminohistidyl-[Aib]HGTFTSDYSKYLESRRAQDFVAWLLK([γGlu-γGlu-γGlu-γGlu-Ac])T-OH)	5	100
CC(=O)N[C@@H](CCC(=O)N[C@@H](CCC(=O)N[C@@H](CCC(=O)N[C@@H](CCC(=O)NCCCC[C@H](NC(=O)[C@@H](NC(=O)[C@H](Cc1ccccc1)NC(=O)[C@H](CCC(=O)O)NC(=O)[C@H](CCC(N)=O)NC(=O)[C@H](C)NC(=O)[C@H](CCCNC(=N)N)NC(=O)[C@H](CCCNC(=N)N)NC(=O)[C@H](CC(C)C)NC(=O)[C@H](CC(=O)O)NC(=O)[C@H](CC(C)C)NC(=O)[C@H](Cc1ccc(O)cc1)NC(=O)[C@H](CCCCN)NC(=O)[C@H](CO)NC(=O)[C@H](Cc1ccc(O)cc1)NC(=O)[C@H](CC(=O)O)NC(=O)[C@H](CO)NC(=O)[C@@H](NC(=O)[C@H](Cc1ccccc1)NC(=O)[C@@H](NC(=O)CNC(=O)[C@H](Cc1c[nH]cn1)NC(=O)[C@H](CO)NC(=O)CCc1c[nH]cn1)[C@@H](C)O)[C@@H](C)O)C(C)C)C(=O)N[C@@H](Cc1c[nH]c2ccccc12)C(=O)N[C@@H](CC(C)C)C(=O)N[C@@H](CC(C)C)C(=O)N[C@@H](CO)C(=O)N[C@H](C(=O)O)[C@@H](C)O)C(=O)O)C(=O)O)C(=O)O)C(=O)O [Example 8, N^ϵ24-[(4S)-4-[[(4S)-4-[[(4S)-4-[[(4S)-4-acetamido-4-carboxybutanoyl]amino]-4-carboxybutanoyl]amino]-4-carboxybutanoyl]amino]-4-carboxybutanoyl]-[Imp1, His3, Leu16, Glu21, Lys24, Leu27, Ser28]-Glucagon] (Desaminohistidyl-SHGTFTSDYSKYLDLRRAQEFVK([γGlu-γGlu-γGlu-γGlu-Ac])WLLST-OH)	1	103
CC(=O)N[C@@H](CCC(=O)N[C@@H](CCC(=O)N[C@@H](CCC(=O)N[C@@H](CCC(=O)NCCCC[C@H](NC(=O)[C@@H](NC(=O)[C@H](Cc1ccccc1)NC(=O)[C@H](CC(=O)O)NC(=O)[C@H](CCC(N)=O)NC(=O)[C@H](C)NC(=O)[C@H](CCCNC(=N)N)NC(=O)[C@H](CCCNC(=N)N)NC(=O)[C@@H](NC(=O)[C@H](CC(=O)O)NC(=O)[C@H](CC(C)C)NC(=O)[C@H](Cc1ccc(O)cc1)NC(=O)[C@H](CCCCN)NC(=O)[C@H](CO)NC(=O)[C@H](Cc1ccc(O)cc1)NC(=O)[C@H](CC(=O)O)NC(=O)[C@H](CO)NC(=O)[C@@H](NC(=O)[C@H](Cc1ccccc1)NC(=O)[C@@H](NC(=O)CNC(=O)[C@H](Cc1c[nH]cn1)NC(=O)C(C)(C)NC(=O)CCc1c[nH]cn1)[C@@H](C)O)[C@@H](C)O)C(C)C)C(C)C)C(=O)N[C@@H](Cc1c[nH]c2ccccc12)C(=O)N[C@@H](CC(C)C)C(=O)N[C@@H](CC(C)C)C(=O)N[C@@H](CO)C(=O)N[C@H](C(=O)O)[C@@H](C)O)C(=O)O)C(=O)O)C(=O)O)C(=O)O [Example 10, N^ϵ24-[(4S)-4-[[(4S)-4-[[(4S)-4-[[(4S)-4-acetamido-4-carboxybutanoyl]amino]-4-carboxybutanoyl]amino]-4-carboxybutanoyl]amino]-4-carboxybutanoyl]-[Imp1, Aib2, His3, Val16, Lys24, Leu27, Ser28]-Glucagon] (Desaminohistidyl-[Aib]HGTFTSDYSKYLDVRRAQDFVK([γGlu-γGlu-γGlu-γGlu-Ac])WLLST-OH)	2	100
